These results are taken from ChEMBL document CHEMBL1128925, “Novel inhibitors of cell adhesion molecule expression” (Bioorg Med Chem Lett, 1996).

The test system of test [1] is HUVEC. The test can be described thus: Compound was evaluated for inhibition of expression of VCAM-1 in IL-1 beta activated human umbilical vein endothelial cells(HUVECs) by using ELISA at 30 uM. The format is functional. On the technique in general: An ELISA detects its analyte on a solid surface through an enzyme-linked reagent.
The subject of test [2] is HUVEC. The test can be described thus: Compound was evaluated for inhibition of expression of ELAM-1 in IL-1 beta activated human umbilical vein endothelial cells(HUVECs) by using ELISA at 30 uM. In kind it is functional.
The subject of test [3] is HUVEC. The test can be described thus: Compound was evaluated for inhibition of expression of ELAM-1 in IL-1 beta activated human umbilical vein endothelial cells(HUVECs) by using ELISA. In kind it is functional, cell-based.
For test [4], the species on record is Mus musculus. The test can be described thus: Compound was evaluated for inhibition of neutrophil recruitment in a mouse skin immune complex model. In kind it is functional. Further details: concentration or dose not given beside the values.
Test [5] relates to HUVEC. Description: Compound was evaluated for inhibition of expression of VCAM-1 in IL-1 beta activated human umbilical vein endothelial cells(HUVECs) by using ELISA. The format is functional, cell-based.

As a reminder, the inhibition is the drop in the measured response relative to a control, in per cent. As to `CCCCc1nnc([S+]([O-])Cc2ncc(C)c(OC)c2C)o1` (configuration not stated), the inhibition at 30 µM in test [1] was 85%; in test [2] it was 60%.
As to `COc1ccnc2c1CCCCC2[S+]([O-])c1nnc(C)o1` (configuration not stated), the inhibition at 30 µM in test [1] and in test [2] was 0% in each case.
Usually IC50 stands for the point on the concentration scale where inhibition reaches its midpoint. Broadly, the Inhibition is the percentage by which the read-out fell short of the control. Take `COc1c(C)cnc(C[S+]([O-])c2nnc(-c3ccccc3O)o2)c1C` (configuration not stated): the IC50 in test [3] came out at 10 µM; in test [5], 8 µM. The molecule also gave an Inhibition in test [4] of 20%.
As to `[O-][S+](Cc1ccccc1)c1nnc(-c2ccccc2O)o1` (configuration not stated), the figures for the IC50 in test [3] and in test [5] were 8 µM and 6 µM, respectively.
Take `CCc1nnc([S+]([O-])Cc2ncc(C)c(OC)c2C)o1` (configuration not stated): the figures for the IC50 in test [3] and in test [5] were 12 µM and 10 µM, respectively.
Regarding `CCCCCc1nnc([S+]([O-])Cc2ncc(C)c(OC)c2C)o1` (configuration not stated), the inhibition at 30 µM in test [1] came to 70%; in test [2], 45%.
For the molecule `COc1c(C)cnc(C[S+]([O-])c2nnc(C)o2)c1C` (configuration not stated), the IC50 is 10 µM in test [3] and 8 µM in test [5]. The Inhibition in test [4] was determined as 55%.
For `CCCc1nnc([S+]([O-])Cc2ncc(C)c(OC)c2C)o1` (configuration not stated), the values for the half-maximal inhibitory concentration (IC50) in test [3] and in test [5] were 10 µM and 8 µM, respectively.
With `COc1c(C)cnc(C[S+]([O-])c2nnc(-c3cccc(C(F)(F)F)c3)o2)c1C` (configuration not stated), the inhibition at 30 µM is 85% in test [1] and 70% in test [2].
With `[O-][S+](Cc1ccccc1)c1nnc(-c2cccs2)o1` (configuration not stated), the IC50 came out at 7 µM in test [3] and 6 µM in test [5]. In addition, the Inhibition in test [4] was found to be 40%.
As for `COc1c(C)cnc(C[S+]([O-])c2nnc(-c3ccc(C(F)(F)F)cc3)o2)c1C` (configuration not stated), the inhibition at 30 µM in test [1] was 70%; in test [2], 50%.
On to `[O-][S+](Cc1ccccc1)c1nnc(-c2ccccn2)o1` (configuration not stated), for which the IC50 in test [3] was found to be 5 µM; in test [5] it was 4 µM. This molecule registered an Inhibition in test [4] of 80%.
For `COc1c(C)cnc(C[S+]([O-])c2nnc(-c3cccs3)o2)c1C` (configuration not stated), the IC50 in test [3] came to 5 µM; in test [5] it was 3 µM.
On to `Cc1nnc([S+]([O-])Cc2ccccc2)o1` (configuration not stated), for which the inhibition at 30 µM is 35% in test [1] and 20% in test [2].
With `Cc1nnc([S+]([O-])Cc2ccccn2)o1` (configuration not stated), the values for the inhibition at 30 µM in test [1] and in test [2] were 80% and 60%, respectively. In test [4], this molecule yielded an Inhibition of 40%.
For `COc1c(C)cnc(C[S+]([O-])c2nnc(-c3ccc(F)cc3)o2)c1C` (configuration not stated), the IC50 in test [3] amounted to 14 µM; in test [5] it was 11 µM.
On to `COc1c(C)cnc(C[S+]([O-])c2nnc(-c3cccn3C)o2)c1C` (configuration not stated), for which the IC50 was determined as 6 µM in test [3] and 4 µM in test [5].
Consider `COc1c(C)cnc(C[S+]([O-])c2nnc(-c3ccccc3)o2)c1C` (configuration not stated), for which the IC50 in test [3] came to 7 µM; in test [5], 6 µM. In test [4], this molecule displayed an Inhibition of 25%.
On to `COc1c(C)cnc(C[S+]([O-])c2nnc(-c3cccc(F)c3)o2)c1C` (configuration not stated), for which the IC50 turned out to be 15 µM in test [3] and 12 µM in test [5].
Regarding `[O-][S+](Cc1ccccc1)c1nnc(-c2cccnc2)o1` (configuration not stated), the IC50 came to 8 µM in test [3] and 6 µM in test [5]. In addition, the Inhibition in test [4] is on record as 50%.
Turning to `[O-][S+](Cc1ccccc1)c1nnc(-c2ccncc2)o1` (configuration not stated), the results for the IC50 in test [3] and in test [5] were 4 µM and 3 µM, respectively. Moreover, the Inhibition in test [4] came out at 55%.
For the molecule `Cc1nnc([S+]([O-])c2c(C)cccc2C)o1` (configuration not stated), the inhibition at 30 µM in test [1] and in test [2] was 0% each time.
